Read-outs that look alike come from different tables or passages of the source.
Columns and labels:
[1] = test system: Liver X Receptor (LXR); type: cell-based, human
[2] = Metabolic stability in mouse liver microsomes; type: in vitro ADME
[3] = test system: A549 cells; assay: Cell counting (proliferation) assay in A549 cells; type: cell-based, human; set-up: IC10 Estimate, dataset 2 - Fig 7a, log 10 scale Y: unit not given here; details: for IC50 / IC90: Homo sapiens
Procedure: (§1) A549 and H2030 cells cultured in RPMI 1640 containing 5% FBS in 12 well-plates at 20% confluence were treated with Oxy210 for 6 days and then trypsinized, spun down and resuspended in fresh medium. For the Carboplatin (CP) and Oxy210 co-treatment experiments, A549 cells cultured in RPMI 1640 containing 2% FBS in 12 well-plates at 20% confluence were treated with CP at different concentrations in the presence or absence of Oxy210 for 6 days. For the TGFβ-induced drug resistance assay, A549 cells cultured in RPMI 1640 containing 2% FBS in 12 well-plates at 10% confluence were pre-treated with TGFβ1 alone or together with Oxy210 for 3 days, and then treated with 20 μM CP for 4 days. An aliquot of cell suspension was applied to a hemocytometer and the cells were then counted under a light microscope.
Statistical analyses were performed using the StatView 5 program (SAS Institute, Cary, NC, USA). All p values were calculated using ANOVA and Fisher’s projected least significant difference (PLSD) significance test. A value of p < 0.05 was considered significant. The IC 50 dose-response curves shown in Figure 4b and Figure 7a–c were modeled using a five-parameter logistic model. This model allows for asymmetric curves and automatically estimates the mean maximum and minimum response. Based on this model, IC 50 values were estimated corresponding to the dose halfway between min and max response. Models of dose versus response and dose versus log response were also evaluated (see Supplementary Materials). The R square statistic was computed as a measure of model fit.
Figure 7 Inhibition of NSCLC cell proliferation by Oxy210. A549 (a), (c) and H2030 (b) cells were treated with the test agents as indicated in RPMI 1640 containing 5% FBS for 5 days and then were trypsinized and counted as described in Methods and Materials section. Data from a representative experiment are reported as the mean of triplicate determinations ± SD (* p < 0.05 vs. control; ** p < 0.01 vs. control).

[4] = test system: Hh pathway target genes Gli1 and Hip in Sufu-/- MEFs; assay: Hh target gene expression in Sufu-/- mouse embryonic fibroblasts; type: cell-based; details: 72 h
Procedure: Total RNA was extracted with the RNeasy Plus Mini Kit from Qiagen (Hilden, Germany) according to the manufacturer’s instructions. One microgram of RNA was reverse-transcribed using an iScript Reverse Transcription Supermix from Bio-Rad Laboratories (Hercules, CA, USA) to make single-stranded cDNA. The cDNAs were then mixed with Qi SYBR Green Supermix (Bio-Rad) for quantitative RT-PCR assay using a Bio-Rad I-cycler IQ quantitative thermocycler. All PCR samples were prepared in triplicate wells in a 96-well plate. After 40 cycles of PCR, melt curves were examined in order to ensure primer specificity. Fold changes in gene expression were calculated using the ΔΔCt method. Primers used for mouse were as follows: Oaz1 (5′-CCACTGCTTCGCCAGAGAG-3′) and (5′-CCCGGACCCAGGTTACTA-3′), Gli1 (5′- […]-3′ and 5′- GCT GATCCAGCCTAAGGTTCTC-3′), Ptch1 (5′-CCATCGGCGACAAGAACC-3′ and 5′-[…]-3′), Thbs1 (5′-[…]-3′ and 5′-CGGGGATCAGGTTGGCATT-3′), Cryab (5′-[…]-3′ and 5′-[…]-3′), Egr2 (5′-[…]-3′ and 5′-[…]-3′), CTGF (5′-GGGCCTCTTCTGCGATTTC-3′ and 5′-[…]-3′).
Figure 5 Oxy210 acts downstream of Smo. (a) Sufu-/- MEF cells were treated with DMEM containing 5% FBS in the presence or absence of Oxy210. After 72 h, RNA was extracted and analyzed by Q-RT-PCR for the expression of Hh target genes Gli1 and Hip, normalized to Oaz1 expression. […] Luciferase activity was measured and normalized to the Renilla luciferase activity. […]

[5] = test system: A549 cells; assay: TGFβ-induced drug resistance (carboplatin) assay, cell counting; type: cell-based, human; details: TGFβ1 ± Oxy210 (5 μM) 3 days, then 20 μM CP 4 days
Procedure: as §1
Figure 10 Effect of Oxy210 on TGFβ-induced resistance to carboplatin. A549 cells were treated with the agents as indicated (in front of --) in RPMI 1640 containing 2% FBS for 3 days, and then treated with the agents as indicated (after --) for 4 days. The cells were then trypsinized and counted. Data from a representative experiment are reported as the mean of triplicate determinations ± SD (## p < 0.01 vs. Control--Control; ++ p < 0.01 vs. Control--CP; ** p < 0.01 vs. TGFβ--CP).

## C[C@]12CC[C@H]3[C@@H](CC=C4C[C@@H](O)CC[C@@]43C)[C@@H]1CC[C@@H]2[C@](C)(O)CCc1cccnc1 [Oxy210, (3S,8S,9S,10R,13S,14S,17S)-17-((R)-2-hydroxy-4-(pyridin-3-yl)butan-2-yl)-10,13-dimethyl-2,3,4,7,8,9,10,11,12,13,14,15,16,17-tetradecahydro-1H-cyclopenta[a]phenanthren-3-ol]
[1]
  induced expression of SREB1c: lack of induced expression
[2]; read-out: MLM, % Remaining after 60 min
  remaining at 1 h: 61%
[2]; read-out: MLM, Half-Life
  half-life: 1.4 h
[3]; A549 cells, 2 μM Oxy210
  fold reduction (left shift) of the IC50 of CP: about four-fold
[3]; A549 cells, non-cytotoxic concentrations of CP (1 to 10 μM)
  anti-proliferation potential of CP when combined: significantly improved
[3]; A549 cells/well, log 10 scale Y
  IC10 Estimate, dataset 2 - Fig 7a, log 10 scale Y: 2.61
[3]; A549 cells/well, original scale Y
  IC10 Estimate, dataset 2 - Fig 7a, original scale Y: 1.92 µM
[3]; A549 cells, 5% FBS, ± SE, read-out: IC50, anti-proliferative effect (cell counting)
  IC50: 2.63 ± 1.01 µM
[3]; A549 cells/well, log 10 scale Y, read-out: IC 50 Estimate, dataset 2 - Fig 7a, log 10 scale Y (converted)
  IC50: 4.23 µM
[3]; A549 cells/well, log 10 scale Y, read-out: IC90 Estimate, dataset 2 - Fig 7a, log 10 scale Y (converted)
  IC90: 6.87 µM
[3]; A549 cells/well, original scale Y, read-out: IC90 Estimate, dataset 2 - Fig 7a, original scale Y
  IC90: 4.18 µM
[4]
  high baseline expression of Hh pathway target genes Gli1 and Hip: significant inhibition
[5]
  sensitivity to CP after TGFβ1 pre-treatment (TGFβ-induced CP resistance): fully restored CP drug sensitivity

From PMC6829886, “Inhibition of Non-Small Cell Lung Cancer Cells by Oxy210, an Oxysterol-Derivative that Antagonizes TGFβ and Hedgehog Signaling” (Cells, 2019)
